In brackets after ≈: the same amount, converted by molar mass.
Experiments:
Assay in all cases: Antibacterial assay, MIC by continuous dilution method in 96-well plates
[1] = tested on: S. aureus (ATCC 25923); assay type: cell-based, Staphylococcus aureus; conditions: for MIC: Staphylococcus aureus, ATCC25923, S. aureus ATCC 25923, read-out: MIC (μg/mL) S. aureus
Method: (§1) Two Gram-positive bacteria B. subtilis (ATCC 6633) and S. aureus (ATCC 25923), and two Gram-negative bacteria E. coli (ATCC 25922) and P. aeruginosa (ATCC 27853) were used. The antibacterial assay and the determination of the MIC were assessed according to continuous dilution method in 96-well plates which has been described in our published paper. The tested substances were dissolved in DMSO and ciprofloxacin was the positive control.

[2] = tested on: E. coli (ATCC 25922); assay type: cell-based, Escherichia coli; conditions: for MIC: Escherichia coli, ATCC25922, E. coli ATCC 25922, read-out: MIC (μg/mL) E. coli
Method: as §1

[3] = tested on: B. subtilis (ATCC 6633); assay type: cell-based, Bacillus subtilis; conditions: for MIC: Bacillus subtilis, ATCC6633, B. subtilis ATCC 6633, read-out: MIC (μg/mL) B. subtilis
Method: as §1

[4] = tested on: P. aeruginosa (ATCC 27853); assay type: cell-based; conditions: Pseudomonas aeruginosa, ATCC27853, read-out: MIC (μg/mL) P. aeruginosa
Method: as §1

| SMILES | MIC [1] [µg/mL] | MIC [2] [µg/mL] | MIC [3] [µg/mL] | MIC [4] [µg/mL] | MIC (μg/mL) S. aureus ([1]; S. aureus ATCC 25923) [µg/mL] | MIC (μg/mL) E. coli ([2]; E. coli ATCC 25922) [µg/mL] | MIC (μg/mL) B. subtilis ([3]; B. subtilis ATCC 6633) [µg/mL] |
| --- | --- | --- | --- | --- | --- | --- | --- |
| CCCc1ccc(O)c(O)c1CO [Compound 6, Asperpanoid A] | > 100 | > 100 | > 100 | > 100 | – | – | – |
| CCCc1cccc(O)c1CO [Compound 8, 2-(hydroxymethyl)-3-propylphenol] | 4.15 to 12.5 (≈ 25 to 75.2 µM) | 4.15 to 12.5 (≈ 25 to 75.2 µM) | 4.15 to 12.5 (≈ 25 to 75.2 µM) | > 100 | 4.15 ± 1.12 (≈ 25 µM) | 8.3 ± 1.0 (≈ 49.9 µM) | 8.3 ± 1.1 (≈ 49.9 µM) |
| CC(C)=C1Oc2c(ccc(CC(C)O)c2CO)C1=O (stereo not drawn) [Compound 14, ustusorane A] | > 100 | > 100 | > 100 | > 100 | – | – | – |
| CC(C)=C1Oc2c(ccc3c2[C@@H](O)O[C@H](C)C3)C1=O [Compound 12, (+)-pseudodeflectusin] | > 100 | > 100 | > 100 | > 100 | – | – | – |
| CCCc1ccc2c(c1CO)O[C@@H](C(C)(C)O)C2 [Compound 11, (−)-brassicadiol] | – | – | – | > 100 | – | – | – |
| O=C(O)c1cn(C2CC2)c2cc(N3CCNCC3)c(F)cc2c1=O [ciprofloxacin, reference compound] | 1.25 ± 1.1 (≈ 3.77 µM) | 1.25 ± 1.12 (≈ 3.77 µM) | 2.5 ± 1.1 (≈ 7.54 µM) | 2.5 ± 1.2 (≈ 7.54 µM) | – | – | – |
